Test results published in patent publication US10703733B2, “MCL-1 inhibitors” (Gilead Sciences, Inc., priority 2018, dated 2020).

Experiments:
SKBR3 cells = assay: SKBR3 Cell Viability Assay (CellTiter Glo); assay type: cell-based; conditions: 72 hours, CellTiter Glo luminescence, read-out: MCL-1 CV SKBR3 EC50
Experimental: SKBR3 Cell Viability Assay Materials
SKBR3 Cells (ATCC HTB-30) were obtained from ATCC (Manassas, Va.) and cultured in McCoy 5A's medium (ATCC 30-2007)+10% fetal bovine serum (SH30071.03, HyClone, Pittsburgh, Pa.) plus 1× Penicillin-Streptomycin L-glutamine (Corning 30-009-C1, Corning, N.Y.)).
The cell viability assay was conducted in a 384-well tissue culture plate (Grenier 781086, Monroe, N.C.) in a total volume of 70 μL. Test compounds were prepared in 1,000×, serially diluted, and pre-spotted into 384-well tissue culture plate by Echo 555 Liquid Handler (Labcyte Inc., San Jose, Calif.). Seventy μl of 6,000 SKBR3 cells were dispensed into each well of the plate and incubated at 37° C. with 5% CO2 for 72 hours. At the end of incubation, 2× CellTiter Glo (CTG) reagents (1 part buffer with 2 parts substrate) (Promega, Madison, Wis.) were prepared, and the plate and the reagent were equilibrated to room temperature for 30 minutes. CTG reagent was added to each plate by Biomek FX at 20 μL/well with 5 times pipetting and mixing to induce cell lysis. Luminescence was read by Envision multimode reader (PerkinElmer). […] Percent inhibition was calculated as followed: % Inhibition=100%*(Well−Neg)/(Pos−Neg) Neg, negative control, DMSO Pos, positive control, 10 μM Puromycin

[1] = target: MCL-1/Bim interaction (recombinant human MCL-1 protein, residues 171-327; biotinylated human Bim peptide, residues 51-76) (Homo sapiens (Human), UniProt Q07820); assay: MCL-1/Bim Binding AlphaLISA Assay; conditions: 0.0625 nM 6xHis-Mcl-1 (171-327), 0.0625 nM biotinylated-Bim peptide
Experimental: MCL-1/Bim Binding AlphaLISA Assay.
Inhibition of the MCL-1 and Bim interaction was measured in the following AlphaLISA assay.
Recombinant human MCL-1 protein (C-terminal 6×His Tagged Mcl-1 containing residues 171-327) was generated at Gilead Sciences, Inc. (Foster City, Calif.). A biotinylated peptide derived from human Bim (residues 51-76) was purchased from CPC Scientific (Sunnyvale, Calif.). (CPC 834113). AlphaLISA anti-6His-acceptor beads (AL128R), AlphaScreen Streptavidin donor beads (6760002B), and Proxiplate-384 Plus (6008289) were purchased from PerkinElmer.
The AlphaLISA assay was performed in a 384-well Proxiplate in a total volume of […]. The reaction mixture contained 0.0625 nM 6×His-Mcl-1 (171-327), 0.0625 nM biotinylated-Bim peptide, 10 μg/mL AlphaLISA anti-6×His-AlphaLISA acceptor beads, […] AlphaScreen streptavidin donor beads, and serially diluted test compounds in the binding buffer (20 mM Hepes, pH 7.5 (Teknova H1035); 150 mM NaCl (Promega V4221); 0.002% Brij 35 (Thermo Scientific 20150); 1 mM Dithiothreitol (DTT) Solution (Affymetrix 70726); 0.01% BSA (BioLabs B9000S)). 1,000×test compounds were pre-spotted onto 384-well Proxiplate (Labcyte Echo) by Echo 555 Liquid Handler (Labcyte Inc., San Jose, Calif.) followed by incubation of 5 μl Mcl-1(171-327) for 1 hour. Then 5 μL Bim (51-76) was added and incubated for 2 hours. Five μL AlphaLISA anti-6His-AlphaLISA acceptor beads were then added for 1 hour followed by addition of 5 μL AlphaScreen streptavidin donor beads for 1 hour. The reaction plates were then read on an Envision multimode reader (PerkinElmer) using AlphaScreen settings. […] Percent inhibition was calculated as shown below: % Inhibition=100%*(Well−Neg)/(Pos−Neg) Neg: negative control, DMSO Pos: positive control, no Mcl-1 protein, no biotinylated-Bim peptide

MCL-1/Bim interaction (recombinant human MCL-1 protein, residues 171-327; biotinylated human Bim peptide, residues 51-76), sequence (Q07820 171-327): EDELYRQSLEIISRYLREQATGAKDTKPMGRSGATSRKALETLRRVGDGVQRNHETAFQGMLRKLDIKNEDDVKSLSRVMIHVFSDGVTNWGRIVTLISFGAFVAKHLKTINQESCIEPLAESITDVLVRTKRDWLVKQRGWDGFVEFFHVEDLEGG

Row | EC50 (SKBR3 cells) | IC50 [1] | SMILES
1 | 9710 nM | – | CCC(=O)N[S@]1(=O)=NC(=O)c2ccc3c(c2)N(C[C@@H]2CC[C@H]2[C@@H](O)/C=C/CCC1)C[C@@]1(CCCc2cc(Cl)ccc21)CO3 [Example 63]
2 | – | 0.05 nM | COc1nn(C)cc1C(=O)N[S@@]1(=O)=NC(=O)c2ccc3c(c2)N(C[C@@H]2CC[C@H]2[C@@H](OC)/C=C/C[C@H](C)C1)C[C@@]1(CCCc2cc(Cl)ccc21)CO3 [Example 154]
3 | – | 0.064 nM | COC[C@H]1C[C@H](NC(=O)N[S@@]2(=O)=NC(=O)c3ccc4c(c3)N(C[C@@H]3CC[C@H]3[C@@H](OC)/C=C/C[C@H](C)C2)C[C@@]2(CCCc3cc(Cl)ccc32)CO4)C1 [Example 200]
4 | – | 0.1 nM | CO[C@H]1/C=C/C[C@H](C)C[S@@](=O)(NC(=O)COC2CCOCC2)=NC(=O)c2ccc3c(c2)N(C[C@@H]2CC[C@H]21)C[C@@]1(CCCc2cc(Cl)ccc21)CO3 [Example 106]
5 | – | 0.1 nM | CO[C@H]1/C=C/C[C@H](C)C[S@@](=O)(NC(=O)NCC2CC2)=NC(=O)c2ccc3c(c2)N(C[C@@H]2CC[C@H]21)C[C@@]1(CCCc2cc(Cl)ccc21)CN3 [Example 107]
6 | 2190 nM | – | CO[C@H]1/C=C/C[C@H](C)[C@@H](C)S(=O)(=O)NC(=O)c2ccc3c(c2)N(C[C@@H]2CC[C@H]21)C[C@@]1(CCCc2cc(Cl)ccc21)CO3 [Comparative Example 1, reference compound]
7 | – | 0.061 nM | C[C@@H]1[C@@H](C)C/C=C/[C@H](O)[C@@H]2CC[C@H]2CN2C[C@@]3(CCCc4cc(Cl)ccc43)COc3ccc(cc32)C(=O)N=[S@]1(=O)NC(=O)N[C@@H]1C[C@H]1C(F)F [Example 260]
8 | – | 1.06 nM | COc1nn(C)cc1C(=O)NS1(=O)=NC(=O)c2ccc3c(c2)N(C[C@@H]2CC[C@H]2[C@@H](OC)/C=C/C[C@H](C)C1)C[C@@]1(CCCc2cc(Cl)ccc21)CO3 (single isomer, unassigned) [Example 388]
9 | – | 10.6 nM | CO[C@H]1/C=C/C[C@H](C)C[S@](N)(=O)=NC(=O)c2ccc3c(c2)N(C[C@@H]2CC[C@H]21)C[C@@]1(CCCc2cc(Cl)ccc21)CO3 (single isomer, unassigned) [Example 109]
10 | – | 0.096 nM | COCC1(C)Cn2cc(C(=O)N[S@@]3(=O)=NC(=O)c4ccc5c(c4)N(C[C@@H]4CC[C@H]4[C@@H](O)/C=C/C[C@H](C)[C@H]3C)C[C@@]3(CCCc4cc(Cl)ccc43)CO5)cc2CO1 (some centres unmarked) [Example 255]
11 | – | 0.196 nM | COCCOc1nn(C)cc1C(=O)N[S@@]1(=O)=NC(=O)c2ccc3c(c2)N(C[C@@H]2CC[C@H]2[C@@H](OC)/C=C/C[C@H](C)C1)C[C@@]1(CCCc2cc(Cl)ccc21)CO3 [Example 216]
12 | – | 0.263 nM | C[C@@H]1[C@@H](C)C/C=C/[C@H](O)[C@@H]2CC[C@H]2CN2C[C@@]3(CCCc4cc(Cl)ccc43)COc3ccc(cc32)C(=O)N=[S@]1(=O)NC(=O)c1cc2n(c1)CC(C)(C)OC2 [Example 264]
13 | – | 0.046 nM | CO[C@H]1/C=C/C[C@H](C)C[S@@](=O)(NC(=O)N[C@H]2C[C@@](C)(OC)C2)=NC(=O)c2ccc3c(c2)N(C[C@@H]2CC[C@H]21)C[C@@]1(CCCc2cc(Cl)ccc21)CO3 [Example 193]
14 | – | 0.036 nM | CO[C@H]1/C=C/C[C@H](C)C[S@@](=O)(NC(=O)c2cnn(C3CC3)c2)=NC(=O)c2ccc3c(c2)N(C[C@@H]2CC[C@H]21)C[C@@]1(CCCc2cc(Cl)ccc21)CO3 [Example 151]
15 | – | 0.098 nM | C[C@@H]1[C@@H](C)C/C=C/[C@H](O)[C@@H]2CC[C@H]2CN2C[C@@]3(CCCc4cc(Cl)ccc43)COc3ccc(cc32)C(=O)N=[S@]1(=O)NC(=O)c1cc2n(c1)CC(C)(CN1CCOCC1)OC2 (some centres unmarked) [Example 259]
16 | – | 0.113 nM | CO[C@H]1/C=C/C[C@H](C)[C@@H](C)[S@@](=O)(NC(=O)COC2COC2)=NC(=O)c2ccc3c(c2)N(C[C@@H]2CC[C@H]21)C[C@@]1(CCCc2cc(Cl)ccc21)CO3 [Example 407]
17 | – | 0.047 nM | CO[C@H]1/C=C/C[C@H](C)C[S@@](=O)(NC(=O)N[C@H]2[C@@H]3COC[C@@H]32)=NC(=O)c2ccc3c(c2)N(C[C@@H]2CC[C@H]21)C[C@@]1(CCCc2cc(Cl)ccc21)CO3 [Example 206]
18 | – | 0.039 nM | COCCO[C@H]1/C=C/[C@H](OC)[C@@H]2CC[C@H]2CN2C[C@@]3(CCCc4cc(Cl)ccc43)COc3ccc(cc32)C(=O)N=[S@](=O)(NC(=O)c2cn(C)nc2OC)C[C@H]1C [Example 291]
19 | – | 0.046 nM | CO[C@H]1/C=C/CCC[S@@](=O)(NC(=O)c2cnn(C)c2)=NC(=O)c2ccc3c(c2)N(C[C@@H]2CC[C@H]21)C[C@@]1(CCCc2cc(Cl)ccc21)CO3 [Example 113]
20 | – | 0.203 nM | COC[C@H]1Cn2cc(C(=O)N[S@@]3(=O)=NC(=O)c4ccc5c(c4)N(C[C@@H]4CC[C@H]4[C@@H](OC)/C=C/C[C@H](C)[C@H]3C)C[C@@]3(CCCc4cc(Cl)ccc43)CO5)cc2CO1 [Example 215]
21 | – | 0.1 nM | CCn1cc(C(=O)N[S@@]2(=O)=NC(=O)c3ccc4c(c3)N(C[C@@H]3CC[C@H]3[C@@H](OC)/C=C/CCC2)C[C@@]2(CCCc3cc(Cl)ccc32)CO4)cn1 [Example 104]
22 | – | 0.089 nM | COc1nnc(C)cc1C(=O)N[S@@]1(=O)=NC(=O)c2ccc3c(c2)N(C[C@@H]2CC[C@H]2[C@@H](OC)/C=C/C[C@H](C)C1)C[C@@]1(CCCc2cc(Cl)ccc21)CO3 [Example 460]
23 | – | 0.219 nM | CO[C@H]1/C=C/C[C@H](C)C[S@@](=O)(NC(=O)N2CC(Oc3ccccn3)C2)=NC(=O)c2ccc3c(c2)N(C[C@@H]2CC[C@H]21)C[C@@]1(CCCc2cc(Cl)ccc21)CO3 [Example 463]
24 | – | 0.041 nM | COc1nn(C)cc1C(=O)N[S@@]1(=O)=NC(=O)c2ccc3c(c2)N(C[C@@H]2CC[C@H]2[C@@H](OC)/C=C/[C@H](O)[C@H](C)C1)C[C@@]1(CCCc2cc(Cl)ccc21)CO3 [Example 279]
25 | – | 2.63 nM | CO[C@H]1/C=C/C[C@H](C)[C@@H](C)[S@](N)(=O)=NC(=O)c2ccc3c(c2)N(C[C@@H]2CC[C@H]21)C[C@@]1(CCCc2cc(Cl)ccc21)CO3 (single isomer, unassigned) [Example 110]
26 | – | 0.068 nM | CO[C@H]1/C=C/C[C@H](C)C[S@@](=O)(NC(=O)N[C@H]2C[C@H]2F)=NC(=O)c2ccc3c(c2)N(C[C@@H]2CC[C@H]21)C[C@@]1(CCCc2cc(Cl)ccc21)CO3 [Example 115]
27 | – | 0.1 nM | CO[C@H]1/C=C/C[C@H](C)[C@@H](C)[S@@](=O)(NC(=O)COC2CCOCC2)=NC(=O)c2ccc3c(c2)N(C[C@@H]2CC[C@H]21)C[C@@]1(CCCc2cc(Cl)ccc21)CO3 [Example 108]
28 | – | 0.7 nM | COCC(=O)NS1(=O)=NC(=O)c2ccc3c(c2)N(C[C@@H]2CC[C@H]2[C@@H](OC)/C=C/CCC1)C[C@@]1(CCCc2cc(Cl)ccc21)CO3 (single isomer, unassigned) [Example 8]
29 | – | 0.087 nM | CO[C@H]1/C=C/C[C@H](C)C[S@@](=O)(NC(=O)c2cc(CN(C)C3CCOCC3)n(C)c2)=NC(=O)c2ccc3c(c2)N(C[C@@H]2CC[C@H]21)C[C@@]1(CCCc2cc(Cl)ccc21)CO3 [Example 241]

Row | SMILES | EC50 (SKBR3 cells) | IC50 [1]
30 | COC1CCCn2cc(C(=O)N[S@@]3(=O)=NC(=O)c4ccc5c(c4)N(C[C@@H]4CC[C@H]4[C@@H](OC)/C=C/C[C@H](C)C3)C[C@@]3(CCCc4cc(Cl)ccc43)CO5)cc2C1 (some centres unmarked) [Example 190] | – | 0.055 nM
31 | C[C@@H]1[C@@H](C)C/C=C/[C@H](O)[C@@H]2CC[C@H]2CN2C[C@@]3(CCCc4cc(Cl)ccc43)COc3ccc(cc32)C(=O)N=[S@]1(=O)NC(=O)c1cc2n(c1)CC1(COC1)OC2 [Example 239] | – | 0.042 nM
32 | CCOc1nn(C)cc1C(=O)N[S@@]1(=O)=NC(=O)c2ccc3c(c2)N(C[C@@H]2CC[C@H]2[C@@H](OC)/C=C/C[C@H](C)C1)C[C@@]1(CCCc2cc(Cl)ccc21)CO3 [Example 194] | – | 0.03 nM
